Test results as given in patent US5726179A, “Muscarinic agonists” (The University of Toledo, priority 1996, dated 1998).
Counter-ions that a name gives are not always drawn.

Tests used:
[1] = system: muscarinic receptors; experiment: PI cortex: agonist activity at muscarinic receptors in rat central nervous system; type: biochemical; settings: mean from one to three experiments, each in triplicate
[2] = system: experimental animals; settings: background, cited from earlier work; for reverse cognitive impairments in experimental animals: natural product agonist ligands
[3] = system: M3 receptors; settings: background; cited from earlier work
[4] = system: M2 receptors; settings: background; cited from earlier work
[5] = target: muscarinic receptors; experiment: Binding affinity at muscarinic receptors in rat central nervous system, ligand [3H]-QNB; settings: rat CNS; mean from one to three experiments, each in triplicate
Source text: Data represent the mean from one
to three experiments, each performed in triplicate.

Row | Compound | PI cortex (at 100 μM) [1] | also measured
1 | O=C(OCC#Cc1ccccc1)C1CN=CNC1 (stereo not drawn) [CDD-0189-A] | 3 ± 8.2% | 
2 | CN1CCN(CC(=O)N2c3ccccc3C(=O)Nc3cccnc32)CC1 [pirenzepine] |  | produce memory impairments in experimental animals ([2]; M1 antagonist): produce memory impairments
3 | C#C/C(C)=C\COC(=O)C1CN=CNC1 (stereo not drawn) [CDD-0162-A, (cis)-5-(3-Methyl-2-penten-4-ynyloxycarbonyl)-1,4,5,6-tetrahydropyrimidine HCl] | 50 ± 4.3% | 
4 | C#C/C(C)=C/COC(=O)C1CN=CNC1 (stereo not drawn) [CDD-0161-A, (trans)-5-(3-Methyl-2-penten-4-ynyloxycarbonyl)-1,4,5,6-tetrahydropyrimidine HCl] | 35 ± 5.6% | 
5 | COC(=O)C1=CCCN(C)C1 [arecoline] |  | reverse cognitive impairments in experimental animals [2]: reverse cognitive impairments
6 | O[Si](CCCN1CCCCC1)(c1ccc(F)cc1)C1CCCCC1 (stereo not drawn) [p-F-hexahydrosiladifenidol] |  | selective antagonist for M3 receptors [3]: selective antagonists
7 | CCN(CC)CC1CCCCN1CC(=O)N1c2ccccc2C(=O)Nc2cccnc21 (stereo not drawn) [AF-DX 116] |  | selective antagonist for M2 receptors [4]: selective antagonists
8 | C#CCCOC(=O)C1CN=CNC1 (stereo not drawn) [CDD-0195-A] | 100 ± 15% | 
9 | CC#CCOC(=O)C1CN=CNC1.Cl (stereo not drawn) [CDD-0171-A, 5-(2-Butynyloxycarbonyl)-1,4,5,6-tetrahydropyrimidine HCl] | 140% | 
10 | CC[C@@H]1C(=O)OC[C@@H]1Cc1cncn1C [pilocarpine] |  | reverse cognitive impairments in experimental animals [2]: reverse cognitive impairments
11 | 5-(3-Methylpropynyloxycarbonyl)-1,4,5,6-tetrahydropyrimidine HCl [CDD-0177-A] | 22 ± 3% | IC50 [5]: 45 µM
